From BindingDB's records for patent US20240190890 (Bristol-Myers Squibb, 2024)

Each compound was assayed against MAP kinase-activated protein kinase 2 (Homo sapiens, UniProt P49137) (assay: Not found).
Experimental: Briefly, 10× stock solutions of MK2 (PV3317, from Life Technologies), 1.13X ATP (AS001A), and Sox conjugated peptide substrate, S/T3-Sox, (KZN1031) were prepared in 1× kinase reaction buffer consisting of 20 mM Tris, pH 7.5, 5 mM MgCl2, 1 mM EGTA, 5 mM β-glycerophosphate, 5% glycerol (10× stock, KB001A) and 0.2 mM DTT (DS001A). Enzyme solution (5 μL) was added to each of DMSO ([…]) or serially diluted test compounds prepared in DMSO in a Corning (#3574) 384-well, white, non-binding surface microtiter plate (Corning, NY). Kinase reactions were started with the addition of 45 μL of the ATP-peptide substrate S/T3-Sox mix and monitored every 71 seconds for 120 minutes at λex360/λem485 in a Synergy H4 plate reader from BioTek (Winooski, VT) at room temperature.

MAP kinase-activated protein kinase 2, sequence (P49137 whole entry): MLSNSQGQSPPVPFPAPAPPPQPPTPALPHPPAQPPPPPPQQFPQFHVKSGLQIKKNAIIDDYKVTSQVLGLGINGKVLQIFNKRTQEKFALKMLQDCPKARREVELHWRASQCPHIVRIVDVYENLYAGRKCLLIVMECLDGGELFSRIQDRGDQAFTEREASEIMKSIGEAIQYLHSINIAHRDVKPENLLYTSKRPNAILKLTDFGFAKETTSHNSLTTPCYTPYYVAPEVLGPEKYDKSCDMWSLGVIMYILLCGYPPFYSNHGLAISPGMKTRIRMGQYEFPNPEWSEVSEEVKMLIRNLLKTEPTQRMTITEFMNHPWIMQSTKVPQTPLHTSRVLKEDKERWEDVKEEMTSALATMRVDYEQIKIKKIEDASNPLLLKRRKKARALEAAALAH

Structure (SMILES) | IC50 [nM]
CCOCc1cnc(Cl)nc1-c1ccc2c(ccc3sc4c(c32)NC[C@@H](C)NC4=O)n1 [US20240190890, Compound I-3] | 107
C=Cc1nc(-c2ccc3c(ccc4sc5c(c43)NC[C@@H](C)NC5=O)n2)cc(N2CCN(C)CC2)n1 [US20240190890, Compound I-18] | 4
C=C(CN1CCOCC1)c1cc(-c2ccc3c(ccc4sc5c(c43)NC[C@@H](C)NC5=O)n2)ncn1 [US20240190890, Compound I-139] | 2

The remaining compounds from weak to strong by IC50, led by results:

IC50 [nM] | Structure (SMILES)
574 | C=Cc1cc(-c2ccc3c(ccc4sc5c(c43)NC[C@@H](C)NC5=O)n2)cc(C=C)n1 [US20240190890, Compound I-80]
73 | C=Cc1cc(-c2ccc3c(ccc4sc5c(c43)NC[C@@H](C)NC5=O)n2)cc(N2CC(C)OC(C)C2)n1 (stereo not given in full) [US20240190890, Compound I-201]
